Measured values published in patent US5990277A, “Semipeptoid farnesyl protein transferase inhibitors and analogs thereof” (Yissum Research Development Company of the Herbrew …, priority 1996, dated 1999).
Read-outs that look alike come from different tables or passages of the source. Square brackets hold non-standard residues; d marks the D form. Ends that are not written are not given here. Peptide text beside a SMILES is read from it. * marks the point of attachment. N(3,4-(MeO)2phenethyl)Gly = COc1ccc(CCNCC(=O)O)cc1OC; Farnesyl = CC(C)=CCC/C(C)=C/CC/C(C)=C/C*; Gly(NCH2CH2Ph) = O=C(O)CNCCc1ccccc1; Gly(N-cHex) = O=C(O)CNC1CCCCC1; NMeV = CN[C@H](C(=O)O)C(C)C; N(iPr)Gly = CC(C)NCC(=O)O; Nphe = O=C(O)CNCc1ccccc1; Nleu = CC(C)CNCC(=O)O

Key:
[1] = system: Ras processing in v-Ha-ras transformed NIH3T3 cells; experiment: Protein processing assay in intact cells: Ras; assay type: cell-based; settings: western blot
Protocol: Its selectivity towards FT as compared to GGT in whole cells, was determined by its relative inhibitory effects on Ras farnesylation and on Rap1A/Krev geranylgeranylation (Casey, J. Lipid Res. 1992, 33, 1731-1740; Cox et al., Curr. Opin. Cell Biol. 1992, 4, 1008-1016; Garcia et al., J. Biol. Chem. 1993, 268, 18415-18418; and Vogt et al., J. Biol. Chem. 1995, 270, 660-664), respectively. v-Ha-ras transformed NIH3T3 cells were incubated with lovastatin or increasing concentrations of the inhibitor. Cells were lysed and the processed and unprocessed forms of Ras or Rap1A were separated by SDS-PAGE and immunoblotted with anti-Ras or anti-Rap1A antibodies, respectively. Lovastatin is a compound which blocks the processing of isoprenylated proteins in cells by inhibiting an early step of the isoprenoid biosynthetic pathway, and therefore serves as a positive control for the inhibition of both geraylgeranylation and farnesylation (Kohl et al., Science 1993, 260, 1934-1937; Garcia et al., J. Biol. Chem. 1993, 268, 18415-18418; Vogt et al., J. Biol. Chem. 1995, 270, 660-664).
After 48 hr of incubation, cell extracts were separated on SDS-PAGE and immunoblotted with anti-Ras antibody.
Cells were lysed (Garcia et al., J. Biol. Chem. 1993, 268, 18415-18418) in 1% Nonidet P-40, 5 mM TRIS.HCl pH 8.0, 5 mM EDTA, 1 mM phenylmethylsulfonyl fluoride, 10 mg/ml aprotonin, 10 mg/ml soybean trypsin inhibitor and 313 mg/ml benzamidine. The lysate was separated by centriflgation and the supernatant used as cell extract. Total protein was separated by SDS-PAGE (40 mg/lane) in 15% acrylamide (0.4% bis-acrylamide) gels, transferred onto nitrocellulose (Schleicher & Schuell, optitran BA-S 85) and probed with anti-Ras antibody Y13-259, or monoclonal anti-Rap1A/K-rev antibody (transduction laboratories). The western blots were visualized using an enhanced chemiluminescence (ECL) detection system.

[2] = system: Rap1A/K-rev processing in v-Ha-ras transformed NIH3T3 cells; experiment: Protein processing assay in intact cells: Rap1A/K-rev; assay type: cell-based
Protocol: Its selectivity towards FT as compared to GGT in whole cells, was determined by its relative inhibitory effects on Ras farnesylation and on Rap1A/Krev geranylgeranylation (Casey, J. Lipid Res. 1992, 33, 1731-1740; Cox et al., Curr. Opin. Cell Biol. 1992, 4, 1008-1016; Garcia et al., J. Biol. Chem. 1993, 268, 18415-18418; and Vogt et al., J. Biol. Chem. 1995, 270, 660-664), respectively. v-Ha-ras transformed NIH3T3 cells were incubated with lovastatin or increasing concentrations of the inhibitor. Cells were lysed and the processed and unprocessed forms of Ras or Rap1A were separated by SDS-PAGE and immunoblotted with anti-Ras or anti-Rap1A antibodies, respectively.
To test the selectivity of compound 12 towards FT in whole cells, the post-translational processing of an endogenous geranylgeranylated protein, Rap1A/K-rev, was analyzed.
v-Ha-ras transformed NIH3T3 fibroblasts were treated with 15 mM lovastatin or the indicated concentrations of compound 12 or vehicle (0.25 mM DTT, 0.25% DMSO), for 48 hr. Cells were lysed (Garcia et al., J. Biol. Chem. 1993, 268, 18415-18418) in 1% Nonidet P-40, 5 mM TRIS.HCl pH 8.0, 5 mM EDTA, 1 mM phenylmethylsulfonyl fluoride, 10 mg/ml aprotonin, 10 mg/ml soybean trypsin inhibitor and 313 mg/ml benzamidine. The lysate was separated by centriflgation and the supernatant used as cell extract. […]

[3] = target: T1, Farnesyl protein transferase (FT) (Bos taurus, UniProt P29702+P49355); experiment: Farnesyl protein transferase (FT) inhibition assay; assay type: biochemical, bovine; settings: for IC50: partially purified FT, Gst-HRas substrate
T1 construct: Partial purification of FT from bovine brain; from tissue; host or cells: bovine brain
Protocol: FT activity was quantified by measuring the incorporation of [^3 H]farnesyl from all-trans-[^3 H]farnesylpyrophosphate into purified Gst-HRas.
Partial purification of FT from bovine brain was performed essentially as described by Reiss at al. (Reiss et al, Cell, 1990, 62: 81), except that a fractogel DEAE column (150×16 mm, Merck) was used for the ion exchange chromatagraphy step. GST-HRas expression vector was constructed by cloning the Hras gene into a pGEX-1 vector, and expressed in E. coli strain TG1. The protein was purified using glutathione agarose (Sigma USA). FT inhibition assays were run in 96-well dishes in a reaction volume of […]. The final reaction mixture contained 5 mM GST-HRas, 0.9 mM [^3 H]farnesylpyrophosphate 20,000 dmp/pmol (NEN-Dupont), 1 mg of partially purified FT, 5 mM MgCl2, 3 mM ZnCl2, 40 mM TRIS.HCl pH 7.5, 60 mM NaCl, 1 mM DTT, 0.2 mM Glutathione, 0.03% Octyl-b-D-glucopyranoside, and serial dilutions of inhibitor.
Following incubation at 37° C. for 30 minutes the reactions were stopped by adding 100 ml of 4% sodium dodecyl sulfate (SDS) followed by 100 ml of 30% trichloroacetic acid (TCA). Plates were incubated for 100 minutes on ice, and the precipitates were filtered using a Millipore milliblot™-system (Millipore Corp., Bedford Mass.) with GF/C membranes. The wells were washed twice with 200 ml of 2% SDS/6% TCA and 7 times with […] of 6% TCA. The filters were punched into 4 ml vials and dried at 70° C. for 10 minutes. 3 ml of scintillation fluid was added and radioactivity was monitored by scintillation counting. IC50 values were resolved from dose-response curves of percent control versus log drug concentration, using the Regression program (Blackwell, UK). Each compound was tested 2-4 times.

[4] = target: T2, Geranylgeranyl transferase-I (GGT) (Bos taurus, UniProt P29702+Q5EAD5); experiment: Geranylgeranyl transferase-I (GGT) inhibition assay; assay type: biochemical, bovine; settings: partially purified GGT, Gst-HRas-CVLL substrate
T2 construct: GGT was partially purified from bovine brain; from tissue; host or cells: bovine brain cytosol
From the text: The second assay estimated the selectivity of the inhibitor towards FT over a related enzyme, geranylgeranyl-protein-transferase-I (GGT), which transfers a C20 -isoprenoid to a thiol group of cysteine of a C-terminal CAAL (SEQ ID NO:17) peptide sequence derived from geranylgeranylpyrophosphate. Geranylgeranylation of normal cellular proteins is 5-10 times more common than farnesylation (Gibbs et al., Cell, 1994, 77: 175; Gibbs, Cell, 1991, 65: 1; Maltese,. FASEB J., 1990, 4: 3319).
A selective FT-inhibitor is considered to cause fewer cytotoxic effects than a nonselective inhibitor of both FT and GGT. GGT activity, for the partially purified GGT enzyme (Moores et al., J. Biol. Chem., 1991, 266: 14603), was quantified by measuring the incorporation of [^3 H]geranylgeranyl from all trans [^3 H]geranylgeranylpyrophosphate, into purified Gst-HRas-CVLL.
GGT was partially purified from bovine brain. Cytosol was prepared and GGT was isolated using a fractogel DEAE column (150×16 mm, Merck) with NaCl gradient, as for FT purification (see Example 15 above). Fractions containing the GGT activity were pooled and stored at -70° C. Hras gene was point mutated using an oligonucleotide directed in vitro mutagenesis system (Amersham version 2.1). The mutated Hras gene was cloned into the GST--frame of a pGEX-1 expression vector, expressed in E. coli strain TG1, and a fusion protein Gst-HRas-CVLL (SEQ ID NO:22) was purified on glutathione agarose.

[5] = target: T3, FT (Bos taurus, UniProt P29702+P49355); experiment: Inhibitor farnesylation assay (alternative substrate); assay type: biochemical, bovine; settings: incubated with FT and [3H]farnesylpyrophosphate in the absence of Ras
T3 construct: Partial purification of FT from bovine brain; from tissue; host or cells: bovine brain
Protocol: The third assay checked whether the inhibitor itself undergoes farnesylation. For this purpose, the inhibitor was incubated with the FT enzyme and [^3 H]farnesylpyrophosphate in the absence of Ras.
For examination whether the inhibitors undergo farnesylation a previously described procedure (Goldstein et al., J. Biol. Chem., 1991, 266: 15575) was used. Each reaction mixture contained the following components in a final volume of […]: 40 mM TRIS.HCl pH 7.5, 67 mM NaCl, 5 mM MgCl2, 7 mM ZnCl2, 1 mM DTT, 0.07% (v/v) octyl-b-D-glucopyranoside, 20 pmol of [^3 H]farnesylpyrophosphate 45,000 dpm/pmol, 4 mM peptide or peptoid, and 1 mg of partially purified FT. After incubation at 37° C. for 30 minutes, the entire reaction mixture was spotted onto an aluminum backed Silica Gel thin layer sheet (20×20 cm, Merck), and placed in a tank containing n-propyl-alcohol/ammonium hydroxide/water (6:3:1, v/v/v). The chromatogram was run for 4 hours, sprayed with EN^3 HANCE (Dupont) and exposed to RX film (FUJI) for 4 days at -70° C.

[6] = target: farnesyl protein transferase (Homo sapiens, UniProt P49354+P49356); settings: cited from earlier work; for farnesyl protein transferase inhibitory potency in vitro: literature
[7] = system: Ras processing in cells transformed with v-ras; settings: cited from earlier work

| Molecule | IC50 [3] | IC50 [4] | alternative substrate (inhibitor itself farnesylated) [5] | other results |
| --- | --- | --- | --- | --- |
| CC[C@H](C)C(=O)O[C@H]1C[C@@H](C)C=C2C=C[C@H](C)[C@H](CC[C@@H]3C[C@@H](O)CC(=O)O3)[C@H]21 [lovastatin, reference compound] |  |  |  | effect on Ras processing ([1]; 48 hr, compared with vehicle): increased amount of unprocessed Ras versus processed Ras; effect on Rap1A/K-rev processing ([2]; 48 hr, western blot): did inhibit Rap1A/K-rev processing |
| CSCC[C@H](NC(=O)[C@H](Cc1ccccc1)NC(=O)CN(C(=O)[C@@H](N)CS)C(C)C)C(=O)O [Semipeptoid 8, cysteinyl-(Nα-isopropyl)glycyl-phenylalanyl-methionine] (H-C[N(iPr)Gly]FM-OH) | 50 µM | 155 µM | no |  |
| CSCC[C@H](NC(=O)CN(Cc1ccccc1)C(=O)[C@@H](NC(=O)[C@@H](N)CS)C(C)C)C(=O)O [Semipeptoid 1, cysteinyl-valyl-(Nα-benzyl)glycyl-methionine] (H-CV[Nphe]M-OH) | 0.1 µM | 40 µM | no | fold more potent than compound 5 (FT) ([3]; versus compound 5): 130 fold; fold more potent than compound 8 (FT) ([3]; versus compound 8): 500 fold |
| CSCC[C@H](NC(=O)[C@H](Cc1ccccc1)NC(=O)CN(CCN(C)C)C(=O)[C@@H](N)CS)C(=O)O [Semipeptoid 9, cysteinyl-(Nα(N,N-dimethylaminoethyl))glycyl-phenylalanyl-methionine] | 4 µM | > 400 µM | no |  |
| CSCC[C@H](NC(=O)CN(Cc1ccccc1)C(=O)CN(C(=O)[C@@H](N)CS)C(C)C)C(=O)O [Semipeptoid 5, cysteinyl-(Nα-isopropyl)glycyl-(Nα-benzyl)glycyl-methionine] (H-C[N(iPr)Gly][Nphe]M-OH) | 13 µM | 190 µM | no |  |
| CC[C@H](C)[C@H](NC[C@@H](NC[C@@H](N)CS)[C@@H](C)CC)C(=O)N[C@@H](CCO)C(=O)O [L-731,735, N-{2(S)-[2(R)-amino-3-mercaptopropylamino]-3(S)-methylpentyl}isoleucyl-homoserine] |  |  |  | farnesyl protein transferase inhibitory potency in vitro [6]: potent and selective inhibitor; effect on Ras processing in cells [7]: no effect on Ras processing |
| methyl ester Derivative of cysteinyl-(Nα-methyl)valyl-(Nα-cyclohexyl)glycyl-methionine [Semipeptoid 12] |  |  |  | concentration range of dose dependent shift of Ras towards its unprocessed form ([1]; 48 hr incubation): 1 to 160 mM; IC50 ([1]; 48 hr incubation, read-out: in situ IC50 (shift of Ras towards its unprocessed form)): 10 µM; effect on Rap1A/K-rev processing [2]: not affected |
| COc1ccc(CCN(CC(=O)N[C@@H](CCSC)C(=O)O)C(=O)CN(C(=O)[C@@H](N)CS)C(C)C)cc1OC [Semipeptoid 6, cysteinyl-(Nα-isopropyl)glycyl-(Nα-3,4-dimetoxyphenethyl)glycyl-methionine] (H-C[N(iPr)Gly][N(3,4-(MeO)2phenethyl)Gly]M-OH) | 4 µM | 80 µM | no |  |
| CC[C@H](C)[C@@H](CO[C@@H](Cc1ccccc1)C(=O)N[C@@H](CCS(C)(=O)=O)C(=O)O)NC[C@@H](N)CS [L-739,750] |  |  |  | farnesyl protein transferase inhibitory potency in vitro [6]: potent inhibitor |
| CSCC[C@H](NC(=O)CN(Cc1ccccc1)C(=O)CN(CCN(C)C)C(=O)[C@@H](N)CS)C(=O)O [Semipeptoid 7, cysteinyl-(Nα(N,N-dimethylaminoethyl))glycyl-(Nα-benzyl)glycyl-methionine] | 3 µM | 40 µM | no |  |
| COc1ccc(CCN(CC(=O)N[C@@H](CCSC)C(=O)O)C(=O)[C@@H](NC(=O)[C@@H](N)CS)C(C)C)cc1OC [Semipeptoid 3, cysteinyl-valyl-(Nα-3,4-dimetoxyphenethyl)glycyl-methionine] (H-CV[N(3,4-(MeO)2phenethyl)Gly]M-OH) | 0.12 µM | 23 µM | no | times more potent than compound 6 (FT) ([3]; versus compound 6): 33 times |
| CSCC[C@H](NC(=O)[C@H](Cc1ccccc1)NC(=O)CN(CC(C)C)C(=O)[C@@H](N)CS)C(=O)O [Semipeptoid 10, cysteinyl-(Nα-isobutyl)glycyl-phenylalanyl-methionine] (H-C[Nleu]FM-OH) | 75 µM | 240 µM | no |  |
| CSCC[C@H](NC(=O)CN(CCc1ccccc1)C(=O)[C@@H](NC(=O)[C@@H](N)CS)C(C)C)C(=O)O [Semipeptoid 2, cysteinyl-valyl-(Nα-phenethyl)glycyl-methionine] (H-CV[Gly(NCH2CH2Ph)]M-OH) | 0.32 µM | 30 µM | no | reduction of relative potency versus compound 1 (FT) ([3]; versus compound 1): 3.2 fold |
| CSCC[C@H](NC(=O)CN(C(=O)[C@H](C(C)C)N(C)C(=O)[C@@H](N)CS)C1CCCCC1)C(=O)O [Semipeptoid 11, cysteinyl-(Nα-methyl)valyl-(Nα-cyclohexyl)glycyl-methionine] (H-C[NMeV][Gly(N-cHex)]M-OH) | 0.0012 µM | 0.91 µM |  | increase of selectivity versus compound 4 ([3]; FT over GGT, versus compound 4): 11 fold; IC50 (GGT)/IC50 (FT) ([3]; selectivity ratio): 758; improvement of potency versus compound 4 (FT) ([3]; versus compound 4): 58 fold; alternative substrate (inhibitor itself farnesylated) ([5]; listed as 11): no; alternative substrate (inhibitor itself farnesylated) ([5]; listed as compound 11): non-farnesylated |
| CSCC[C@H](NC(=O)CN(C(=O)[C@@H](NC(=O)[C@@H](N)CS)C(C)C)C1CCCCC1)C(=O)O [Semipeptoid 4, cysteinyl-valyl-(Nα-cyclohexyl)glycyl-methionine] (H-CV[Gly(N-cHex)]M-OH) | 0.07 µM | 5 µM | no |  |
| CVLS: CAAX tetrapeptide (SEQ ID NO:18); the result concerns its farnesylated form (C(Farnesyl)VLS) |  |  |  | fold less potent as inhibitor: farnesylated peptide versus its corresponding tetrapeptide ([6]; farnesylated form of the peptide): about 13 fold |
